# Reference: patent US20220274980A1, “PHARMACOLOGICAL INHIBITORS OF THE ENL YEATS DOMAIN” (priority 2019, published 2022)
# Read-outs that look alike come from different tables or passages of the source.
# Tests used:
# [1] = target: T1, ENL YEATS domain (association with H3K27cr) (Homo sapiens, UniProt Q03111); experiment: biochemical
# T1 sequence (Q03111 1-148): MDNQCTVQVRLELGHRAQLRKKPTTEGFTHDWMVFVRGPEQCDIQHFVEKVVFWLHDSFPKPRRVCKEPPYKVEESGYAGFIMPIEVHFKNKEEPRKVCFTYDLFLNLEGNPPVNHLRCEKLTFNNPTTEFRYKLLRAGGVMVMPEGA
# Method: (§1) Protein Production. Double stranded DNA fragments encoding the protein sequence of ENL YEATS(1-148) were synthesized (IDT DNA) for assembly-based cloning into a modified expression vector backbone derived from pET21a (Novagen). The protein was fused to a StrepII-SUMO and 6×His tag on the amino and carboxy terminus, respectively. Transformed BL21(DE3) cells (New England Biolabs) were grown at 37° C. in 2×YT growth medium to an OD600 of 0.6. Protein expression was induced at 25° C. with the addition of isopropyl-β-D-thiogalactopyranoside (IPTG) to a final concentration of 0.4 mM. The culture was harvested by centrifugation following a 20-hour incubation and subsequently purified by immobilized metal affinity chromatography. Cells were resuspended 50 mM Tris-HCl pH 8.0, 300 mM NaCl, 10% glycerol, 10 mM imidazole, 1 mM DTT containing Complete EDTA-free protease inhibitor (Roche) and lysed by two passes through a MicroFluidizer at 10,000 psi. The lysate was clarified by centrifugation at 16,000 rpm for 30 minutes at 4° C. The supernatant was passed over NiNTA agarose (QIAGEN) and the protein was eluted in 50 mM Tris-HCl pH 8.0, 300 mM NaCl, 10% glycerol, 250 mM imidazole, 1 mM DTT. Fractions containing the ENL YEATS(1-148) fusion protein were buffer exchanged into 100 mM Tris-HCl pH 8.0, 150 mM NaCl, 1 mM EDTA, 1 mM DTT using PD10 desalting columns (GE Life Sciences). Ulp1 protease was added to cleave the StrepII-SUMO fusion and the reaction mixture was incubated overnight at 4° C. The cleavage reaction mixture was loaded onto a StrepTrap column (GE Life Sciences) and ENL YEATS(1-148) was recovered in the flow through. BRD4 BD1 was purchased from Cayman (Cat. No. 11720).
# (§2) Homogenous time-resolved FRET (HTRF) histone-binding assays. Both HTRF assays were performed by combining recombinant protein and synthetic histone peptide in assay buffer (25 mM HEPES pH 7, 20 mM NaCl, 0.2% Pluronic F-127, and 0.05% BSA) with 1 nM LanthaScreen Eu-anti-His Tag antibody (ThermoFisher, Cat. No, PV5597) and 8.9 nM SureLight allophycocyanin-streptavidin (Perkin Elmer, APC-SA, Cat. No. CR130-100). ENL YEATS was used at 5 nM and BRD4 BD1 was used at 10 nM. ENL assays were performed with H3(13-32)K27cr (13.3 and 100 nM, respectively), custom synthesized at ABclonal (N-terminal biotin, C-terminal amide); BRD4 BD1 assay was performed with 13.3 nM tetra-acetylated H4 (BioVision, Cat. No. 7144-01). Once all reagents were combined (with or without peptide), 10 μL was dispensed per well into black 384-well low-volume plates (Corning, Cat. No. 3821) and drug was added by pin tool transfer (Biomek FX). Assays were incubated for 2 or more hours before measurement of HTRF signal on a PHERAstar plate reader (BMG Labtech; simultaneous dual emission; excitation=337 nm, emission 1=665 nm, emission 2=620 nm). HTRF signal (ratio of emission 1 to emission 2) from vehicle-treated wells (maximum signal) and no-peptide-control wells (minimum signal) were used to calculate percent inhibition for drug-treated wells.
# [2] = target: T2, ENL(YEATS)-HiBiT (Homo sapiens, UniProt Q03111); experiment: cell-based
# T2 sequence (Q03111 1-138 limits assumed): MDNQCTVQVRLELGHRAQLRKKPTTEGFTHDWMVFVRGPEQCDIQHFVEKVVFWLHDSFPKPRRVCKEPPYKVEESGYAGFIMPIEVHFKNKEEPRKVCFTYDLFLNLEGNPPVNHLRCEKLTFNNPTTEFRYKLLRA
# Method: Cellular thermal shift assay (CETSA). […] Cells were transferred to 384-well (20,000 cells per well in 20 μL) or 1,536-well (3,000 cells per well in 4 μL) plates and drug was transferred using a 100 nL pin tool for 384-well plates or acoustic transfer (Labcyte, Echo Liquid Handler) for 1,536-well plates. Luminescent detection of HiBiT was performed by combining an equal volume of Nano-Glo HiBiT Lytic Reagent (Promega, HiBiT Lytic Detection System, Cat. No. N3040) in each well. […] Briefly, cells were treated with drug, washed with PBS, heated to various temperatures in a thermocycler, cooled to room temperature, lysed by three rounds of freeze-thaw, and then clarified lystaes were subjected to immunoblot analysis.
# [3] = target: T3, BRD4 bromodomain 1 (BD1) (Homo sapiens, UniProt O60885); experiment: BRD4 (BD1)-H4 tetra-acetylated HTRF histone-binding assay
# T3 construct: Selectivity against BRD4 bromodomain 1 (BD1), measured by HTRF; His; purchased Cayman 11720
# Method: as §1, §2
# [4] = ENL (YEATS)-H3K27cr HTRF (IC50, μM), Table 1
# [5] = ENL (YEATS)-H3K27cr HTRF (IC50, μM), Table 2
smiles,measurement,setting,value
Cc1ccc(-c2cn3cc(C(=O)NC4CCC4)ccc3n2)cc1 [Compound 71],IC50,[1]; [4],1.17 µM
same,IC50,[1]; [5],1.17 µM
same,IC50,[2],5.52 µM
O=C(NC1COC1)c1ccc2nc(-c3ccccc3)cn2c1 [Compound 70],IC50,[1]; [4],> 50 µM
same,IC50,[1]; [5],> 50 µM
same,IC50,[2],27.3 µM
O=C(O)COC1CCN(CCC(=O)Nc2cccc(-c3cn4cc(C(=O)NC5CCC5)ccc4n3)c2)CC1 [Compound 111],IC50,[1]; [4],0.243 µM
same,IC50,[1]; [5],0.243 µM
same,IC50,[2],6.14 µM
O=C(NC1CCC1O)c1ccc2nc(-c3ccccc3)cn2c1 (centres unmarked) [Compound 116],IC50,[1]; [4],36 µM
same,IC50,[1]; [5],36 µM
same,IC50,[2],35 µM
C#C[C@H]1C[C@@H](NC(=O)c2ccc3nc(-c4ccccc4)cn3c2)C1 [Compound 122],IC50,[1]; [4],6 µM
same,IC50,[1]; [5],6 µM
same,IC50,[2],19 µM
COc1ccc(-c2cn3cc(C(=O)NC4CCC4)ccc3n2)cc1 [Compound 78],IC50,[1]; [4],3.27 µM
same,IC50,[1]; [5],3.27 µM
same,IC50,[2],7.88 µM
O=C(NC1CCC1)c1ccc2nc(-c3cccc(NS(=O)(=O)NCC(=O)N4CCCCC4)c3)cn2c1 [Compound 98],IC50,[1]; [4],0.101 µM
same,IC50,[1]; [5],0.101 µM
same,IC50,[2],12 µM
N#Cc1ccc(-c2cn3cc(C(=O)NC4CCC4)ccc3n2)cc1 [Compound 86],IC50,[1]; [4],1.3 µM
same,IC50,[1]; [5],1.3 µM
same,IC50,[2],2.51 µM
O=C(NC1CC2(CC2)C1)c1ccc2nc(-c3ccccc3)cn2c1 [Compound 118],IC50,[1]; [4],0.723 µM
same,IC50,[1]; [5],0.723 µM
same,IC50,[2],7 µM
O=C(N[C@@H]1CC[C@H]1O)c1ccc2nc(-c3ccccc3)cn2c1 [Compound 124],IC50,[1]; [4],21 µM
same,IC50,[1]; [5],21 µM
same,IC50,[2],56 µM
COC[C@@H]1CC[C@@H]1NC(=O)c1ccc2nc(-c3ccccc3)cn2c1 [Compound 127],IC50,[1]; [4],58 µM
same,IC50,[1]; [5],58 µM
same,IC50,[2],32 µM
COC[C@@H]1CC[C@H]1NC(=O)c1ccc2nc(-c3ccccc3)cn2c1 [Compound 121],IC50,[1]; [4],13 µM
same,IC50,[1]; [5],13 µM
same,IC50,[2],23 µM
CO[C@@H]1CC[C@H]1NC(=O)c1ccc2nc(-c3ccccc3)cn2c1 [Compound 126],IC50,[1]; [4],61 µM
same,IC50,[1]; [5],61 µM
same,IC50,[2],22 µM
O=C(N[C@@H]1CCc2ccccc21)c1ccc2nc(-c3ccccc3)cn2c1 [Compound 74],IC50,[1]; [4],2.29 µM
same,IC50,[1]; [5],2.29 µM
same,IC50,[2],8.9 µM
CC(C)NC(=O)c1ccc2nc(-c3cccc(NS(=O)(=O)NCCCN4CCCC4)c3)cn2c1 [Compound 64],IC50,[1]; [4],0.34 µM
same,IC50,[1]; [5],0.34 µM
same,IC50,[3]; Table 1,> 50 µM
same,IC50,[3]; Table 2,> 50 µM
O=C(NC1CC(CO)C1)c1ccc2nc(-c3ccccc3)cn2c1 (centres unmarked) [Compound 85],IC50,[1]; [4],21.3 µM
same,IC50,[1]; [5],21.3 µM
same,IC50,[2],25.6 µM
O=C(NC1CCC1)c1ccc2nc(-c3cccc(NS(=O)(=O)NCCN4CCC(O)CC4)c3)cn2c1 [Compound 99],IC50,[1]; [4],0.05 µM
same,IC50,[1]; [5],0.05 µM
same,IC50,[2],0.742 µM
"CC(C)NC(=O)c1ccc2nc(-c3ccc(N=S(=O)(F)F)cc3)cn2c1 [Compound 41, (4-(6-(isopropylcarbamoyl)imidazo[1,2-a]pyridin-2-yl)phenyl)sulfurimidoyl difluoride]",IC50,"[1]; read-out: ENL (YEATS)-H3K27cr HTRF (IC50), Table 2",13 µM
same,IC50,[3]; Table 1,> 50 µM
same,IC50,[3]; Table 2,> 50 µM
CC(C)NC(=O)c1ccc2nc(-c3cccc(NS(=O)(=O)NCCC(N)=O)c3)cn2c1 [Compound 56],IC50,[1]; [4],0.52 µM
same,IC50,[1]; [5],0.52 µM
same,IC50,[3]; Table 1,> 50 µM
same,IC50,[3]; Table 2,> 50 µM
COc1ccc(CNS(=O)(=O)Nc2cccc(-c3cn4cc(C(=O)NC(C)C)ccc4n3)c2)c(OC)c1 [Compound 50],IC50,[1]; [4],0.52 µM
same,IC50,[1]; [5],0.52 µM
same,IC50,[3]; Table 1,> 50 µM
same,IC50,[3]; Table 2,> 50 µM
CC(C)NC(=O)c1ccc2nc(-c3cccc(NS(=O)(=O)NCCCn4ccnc4)c3)cn2c1 [Compound 67],IC50,[1]; [4],0.33 µM
same,IC50,[1]; [5],0.33 µM
same,IC50,[3]; Table 1,> 50 µM
same,IC50,[3]; Table 2,> 50 µM
CC(C)NC(=O)c1ccc2nc(-c3cccc(NS(=O)(=O)NCCO)c3)cn2c1 [Compound 57],IC50,[1]; [4],0.43 µM
same,IC50,[1]; [5],0.43 µM
same,IC50,[3]; Table 1,> 50 µM
same,IC50,[3]; Table 2,> 50 µM
